According to patent publication US4479951A, “1.4;3.6-Dianhydrohexitol nitrates substituted by purine bases, processes for their preparation and pharmaceutical compositions” (Dr. Willmar Schwabe GmbH & Co., priority 1980, dated 1984):

Tested on: mongrel dogs
Assay: circulatory-pharmacological effectiveness on the narcotised dog, intravenous administration
Format: in vivo

Structure (SMILES): Nc1ncnc2c1ncn2[C@H]1CO[C@H]2[C@@H]1OC[C@@H]2O[N+](=O)[O-] [1c/2c, 5-(9-Adenyl)-5-desoxy-1.4;3.6-dianhydro-L-iditol 2-nitrate]
- APdiast: diastolic aorta pressure (2 min after i.v. 1 mg/kg): 74.1 mm.Hg
- APsyst: systolic aorta pressure (2 min after i.v. 1 mg/kg): 115.3 mm.Hg
- BFFem: blood flow in the A. femoralis, referred to 20 kg. body weight (2 min after i.v. 1 mg/kg): 35.3 mL/min
- HF: heart frequency (2 min after i.v. 1 mg/kg): 158.7 min⁻¹
- HLL: heart capacity left, referred to 20 kg. body weight (2 min after i.v. 1 mg/kg): 0.75 W
- HLR: heart capacity right, referred to 20 kg. body weight (2 min after i.v. 1 mg/kg): 115.8 mW
- HZV: heart minute volume, referred to 20 kg. body weight (2 min after i.v. 1 mg/kg): 3.91 L/min
- LVEDP: end diastolic pressure in the left ventricle (2 min after i.v. 1 mg/kg): 2.62 mm.Hg
- PAP: average pressure in the A. pulmonalis (2 min after i.v. 1 mg/kg): 15.6 ±2.1 mm.Hg
- PRA: pressure in the right atrium (2 min after i.v. 1 mg/kg): 2.06 mm.Hg
- SV: beat volume, referred to 20 kg. body weight (2 min after i.v. 1 mg/kg): 25.6 mL
- WAP: pulmonalis resistance, referred to 20 kg. body weight (2 min after i.v. 1 mg/kg): 0.45 U
- WFem: femoralis resistance, referred to 20 kg. body weight (2 min after i.v. 1 mg/kg): 0.35 KU
- WTP: total peripheral resistance, referred to 20 kg. body weight (2 min after i.v. 1 mg/kg): 2.93 U
- dp/dt: rate of pressure increase in the left ventricle (2 min after i.v. 1 mg/kg): 2606.2 mm.Hg/sec.
- APdiast: diastolic aorta pressure (5 min after i.v. 1 mg/kg): 82.5 mm.Hg
- APsyst: systolic aorta pressure (5 min after i.v. 1 mg/kg): 120.9 mm.Hg
- BFFem: blood flow in the A. femoralis, referred to 20 kg. body weight (5 min after i.v. 1 mg/kg): 36.6 mL/min
- HF: heart frequency (5 min after i.v. 1 mg/kg): 148.7 min⁻¹
- HLL: heart capacity left, referred to 20 kg. body weight (5 min after i.v. 1 mg/kg): 0.74 W
- HLR: heart capacity right, referred to 20 kg. body weight (5 min after i.v. 1 mg/kg): 87.6 mW
- HZV: heart minute volume, referred to 20 kg. body weight (5 min after i.v. 1 mg/kg): 3.61 L/min
- LVEDP: end diastolic pressure in the left ventricle (5 min after i.v. 1 mg/kg): 2.91 mm.Hg
- PAP: average pressure in the A. pulmonalis (5 min after i.v. 1 mg/kg): 13.7 ±1.4 mm.Hg
- PRA: pressure in the right atrium (5 min after i.v. 1 mg/kg): 2.81 mm.Hg
- SV: beat volume, referred to 20 kg. body weight (5 min after i.v. 1 mg/kg): 26.0 mL
- WAP: pulmonalis resistance, referred to 20 kg. body weight (5 min after i.v. 1 mg/kg): 0.40 U
- WFem: femoralis resistance, referred to 20 kg. body weight (5 min after i.v. 1 mg/kg): 0.36 KU
- WTP: total peripheral resistance, referred to 20 kg. body weight (5 min after i.v. 1 mg/kg): 3.42 U
- dp/dt: rate of pressure increase in the left ventricle (5 min after i.v. 1 mg/kg): 2343.7 mm.Hg/sec.
- APdiast: diastolic aorta pressure (7 min after i.v. 1 mg/kg): 83.4 mm.Hg
- APsyst: systolic aorta pressure (7 min after i.v. 1 mg/kg): 121.9 mm.Hg
- BFFem: blood flow in the A. femoralis, referred to 20 kg. body weight (7 min after i.v. 1 mg/kg): 38.6 mL/min
- HF: heart frequency (7 min after i.v. 1 mg/kg): 146.7 min⁻¹
- HLL: heart capacity left, referred to 20 kg. body weight (7 min after i.v. 1 mg/kg): 0.72 W
- HLR: heart capacity right, referred to 20 kg. body weight (7 min after i.v. 1 mg/kg): 89.3 mW
- HZV: heart minute volume, referred to 20 kg. body weight (7 min after i.v. 1 mg/kg): 3.51 L/min
- LVEDP: end diastolic pressure in the left ventricle (7 min after i.v. 1 mg/kg): 2.91 mm.Hg
- PAP: average pressure in the A. pulmonalis (7 min after i.v. 1 mg/kg): 14.1 ±1.6 mm.Hg
- PRA: pressure in the right atrium (7 min after i.v. 1 mg/kg): 2.81 mm.Hg
- SV: beat volume, referred to 20 kg. body weight (7 min after i.v. 1 mg/kg): 25.6 mL
- WAP: pulmonalis resistance, referred to 20 kg. body weight (7 min after i.v. 1 mg/kg): 0.42 U
- WFem: femoralis resistance, referred to 20 kg. body weight (7 min after i.v. 1 mg/kg): 0.34 KU
- WTP: total peripheral resistance, referred to 20 kg. body weight (7 min after i.v. 1 mg/kg): 3.59 U
- dp/dt: rate of pressure increase in the left ventricle (7 min after i.v. 1 mg/kg): 2362.5 mm.Hg/sec.
- APdiast: diastolic aorta pressure (10 min after i.v. 1 mg/kg): 83.4 mm.Hg
- APsyst: systolic aorta pressure (10 min after i.v. 1 mg/kg): 120.9 mm.Hg
- BFFem: blood flow in the A. femoralis, referred to 20 kg. body weight (10 min after i.v. 1 mg/kg): 39.5 mL/min
- HF: heart frequency (10 min after i.v. 1 mg/kg): 141.2 min⁻¹
- HLL: heart capacity left, referred to 20 kg. body weight (10 min after i.v. 1 mg/kg): 0.72 W
- HLR: heart capacity right, referred to 20 kg. body weight (10 min after i.v. 1 mg/kg): 88.8 mW
- HZV: heart minute volume, referred to 20 kg. body weight (10 min after i.v. 1 mg/kg): 3.5 L/min
- LVEDP: end diastolic pressure in the left ventricle (10 min after i.v. 1 mg/kg): 3.20 mm.Hg
- PAP: average pressure in the A. pulmonalis (10 min after i.v. 1 mg/kg): 14.2 ±1.6 mm.Hg
- PRA: pressure in the right atrium (10 min after i.v. 1 mg/kg): 2.95 mm.Hg
- SV: beat volume, referred to 20 kg. body weight (10 min after i.v. 1 mg/kg): 26.4 mL
- WAP: pulmonalis resistance, referred to 20 kg. body weight (10 min after i.v. 1 mg/kg): 0.42 U
- WFem: femoralis resistance, referred to 20 kg. body weight (10 min after i.v. 1 mg/kg): 0.33 KU
- WTP: total peripheral resistance, referred to 20 kg. body weight (10 min after i.v. 1 mg/kg): 3.57 U
- dp/dt: rate of pressure increase in the left ventricle (10 min after i.v. 1 mg/kg): 2268.7 mm.Hg/sec.
- APdiast: diastolic aorta pressure (15 min after i.v. 1 mg/kg): 80.6 mm.Hg
- APsyst: systolic aorta pressure (15 min after i.v. 1 mg/kg): 120.4 mm.Hg
- BFFem: blood flow in the A. femoralis, referred to 20 kg. body weight (15 min after i.v. 1 mg/kg): 39.9 mL/min
- HF: heart frequency (15 min after i.v. 1 mg/kg): 133.0 min⁻¹
- HLL: heart capacity left, referred to 20 kg. body weight (15 min after i.v. 1 mg/kg): 0.72 W
- HLR: heart capacity right, referred to 20 kg. body weight (15 min after i.v. 1 mg/kg): 87.3 mW
- HZV: heart minute volume, referred to 20 kg. body weight (15 min after i.v. 1 mg/kg): 3.61 L/min
- LVEDP: end diastolic pressure in the left ventricle (15 min after i.v. 1 mg/kg): 3.37 mm.Hg
- PAP: average pressure in the A. pulmonalis (15 min after i.v. 1 mg/kg): 14.0 ±1.9 mm.Hg
- PRA: pressure in the right atrium (15 min after i.v. 1 mg/kg): 3.24 mm.Hg
- SV: beat volume, referred to 20 kg. body weight (15 min after i.v. 1 mg/kg): 29.3 mL
- WAP: pulmonalis resistance, referred to 20 kg. body weight (15 min after i.v. 1 mg/kg): 0.40 U
- WFem: femoralis resistance, referred to 20 kg. body weight (15 min after i.v. 1 mg/kg): 0.32 KU
- WTP: total peripheral resistance, referred to 20 kg. body weight (15 min after i.v. 1 mg/kg): 3.41 U
- dp/dt: rate of pressure increase in the left ventricle (15 min after i.v. 1 mg/kg): 2250.0 mm.Hg/sec.
- APdiast: diastolic aorta pressure (20 min after i.v. 1 mg/kg): 79.1 mm.Hg
- APsyst: systolic aorta pressure (20 min after i.v. 1 mg/kg): 121.5 mm.Hg
- BFFem: blood flow in the A. femoralis, referred to 20 kg. body weight (20 min after i.v. 1 mg/kg): 41.2 mL/min
- HF: heart frequency (20 min after i.v. 1 mg/kg): 129.7 min⁻¹
- HLL: heart capacity left, referred to 20 kg. body weight (20 min after i.v. 1 mg/kg): 0.72 W
- HLR: heart capacity right, referred to 20 kg. body weight (20 min after i.v. 1 mg/kg): 87.7 mW
- HZV: heart minute volume, referred to 20 kg. body weight (20 min after i.v. 1 mg/kg): 3.66 L/min
- LVEDP: end diastolic pressure in the left ventricle (20 min after i.v. 1 mg/kg): 3.56 mm.Hg
- PAP: average pressure in the A. pulmonalis (20 min after i.v. 1 mg/kg): 13.8 ±1.7 mm.Hg
- PRA: pressure in the right atrium (20 min after i.v. 1 mg/kg): 3.30 mm.Hg
- SV: beat volume, referred to 20 kg. body weight (20 min after i.v. 1 mg/kg): 30.0 mL
- WAP: pulmonalis resistance, referred to 20 kg. body weight (20 min after i.v. 1 mg/kg): 0.37 U
- WFem: femoralis resistance, referred to 20 kg. body weight (20 min after i.v. 1 mg/kg): 0.31 KU
- WTP: total peripheral resistance, referred to 20 kg. body weight (20 min after i.v. 1 mg/kg): 3.32 U
- dp/dt: rate of pressure increase in the left ventricle (20 min after i.v. 1 mg/kg): 2231.2 mm.Hg/sec.
- APdiast: diastolic aorta pressure (25 min after i.v. 1 mg/kg): 80.6 mm.Hg
- APsyst: systolic aorta pressure (25 min after i.v. 1 mg/kg): 122.8 mm.Hg
- BFFem: blood flow in the A. femoralis, referred to 20 kg. body weight (25 min after i.v. 1 mg/kg): 42.2 mL/min
- HF: heart frequency (25 min after i.v. 1 mg/kg): 125.7 min⁻¹
- HLL: heart capacity left, referred to 20 kg. body weight (25 min after i.v. 1 mg/kg): 0.74 W
- HLR: heart capacity right, referred to 20 kg. body weight (25 min after i.v. 1 mg/kg): 90.0 mW
- HZV: heart minute volume, referred to 20 kg. body weight (25 min after i.v. 1 mg/kg): 3.7 L/min
- LVEDP: end diastolic pressure in the left ventricle (25 min after i.v. 1 mg/kg): 4.03 mm.Hg
- PAP: average pressure in the A. pulmonalis (25 min after i.v. 1 mg/kg): 14.0 ±1.8 mm.Hg
- PRA: pressure in the right atrium (25 min after i.v. 1 mg/kg): 3.28 mm.Hg
- SV: beat volume, referred to 20 kg. body weight (25 min after i.v. 1 mg/kg): 31.3 mL
- WAP: pulmonalis resistance, referred to 20 kg. body weight (25 min after i.v. 1 mg/kg): 0.36 U
- WFem: femoralis resistance, referred to 20 kg. body weight (25 min after i.v. 1 mg/kg): 0.31 KU
- WTP: total peripheral resistance, referred to 20 kg. body weight (25 min after i.v. 1 mg/kg): 3.33 U
- dp/dt: rate of pressure increase in the left ventricle (25 min after i.v. 1 mg/kg): 2175.0 mm.Hg/sec.
- APdiast: diastolic aorta pressure (30 min after i.v. 1 mg/kg): 79.7 mm.Hg
- APsyst: systolic aorta pressure (30 min after i.v. 1 mg/kg): 122.8 mm.Hg
- BFFem: blood flow in the A. femoralis, referred to 20 kg. body weight (30 min after i.v. 1 mg/kg): 43.9 mL/min
- HF: heart frequency (30 min after i.v. 1 mg/kg): 122.7 min⁻¹
- HLL: heart capacity left, referred to 20 kg. body weight (30 min after i.v. 1 mg/kg): 0.73 W
- HLR: heart capacity right, referred to 20 kg. body weight (30 min after i.v. 1 mg/kg): 84.9 mW
- HZV: heart minute volume, referred to 20 kg. body weight (30 min after i.v. 1 mg/kg): 3.63 L/min
- LVEDP: end diastolic pressure in the left ventricle (30 min after i.v. 1 mg/kg): 4.31 mm.Hg
- PAP: average pressure in the A. pulmonalis (30 min after i.v. 1 mg/kg): 14.1 ±1.8 mm.Hg
- PRA: pressure in the right atrium (30 min after i.v. 1 mg/kg): 3.52 mm.Hg
- SV: beat volume, referred to 20 kg. body weight (30 min after i.v. 1 mg/kg): 31.6 mL
- WAP: pulmonalis resistance, referred to 20 kg. body weight (30 min after i.v. 1 mg/kg): 0.36 U
- WFem: femoralis resistance, referred to 20 kg. body weight (30 min after i.v. 1 mg/kg): 0.29 KU
- WTP: total peripheral resistance, referred to 20 kg. body weight (30 min after i.v. 1 mg/kg): 3.32 U
- dp/dt: rate of pressure increase in the left ventricle (30 min after i.v. 1 mg/kg): 2184.4 mm.Hg/sec.
